# Counter-ions that a name gives are not always drawn.
# How the values were obtained:
# NOS1 (nNOS) = molecular target: T1, NOS1 (nNOS) (Homo sapiens, UniProt P29475); test: NOS1 enzymatic activity: conversion of 14-C-L-arginine to L-citrulline; assay type: biochemical
# T1 construct: made in house
# Method: (§1) The enzymatic activity of purified NOS1, NOS2, or NOS3 to convert radiolabeled L-arginine to L-citrulline was assessed in presence or absence of different concentrations of (A) hydroxocobalamin, (B) cobinamide, (C) dicyanocobinamide, or (D) cyanocobalamin. Results are expressed as percent inhibition.
# (§2) The effect of methylcobalamin (not exposed to light or exposed to light) on nNOS is shown in FIG. 3A; its effect on iNOS is shown in FIG. 3B. The effect of adenosylcobalamin (not exposed to light or exposed to light) on nNOS is shown in FIG. 3C; its effect on iNOS is shown in FIG. 3D. The agents were protected from light or exposed to light for 60 minutes. The enzyme assays were done in near-dark conditions (as low light as possible). Light removes the methyl- or adenosyl-group from the agent resulting in hydroxocobalamin.
# (§3) Briefly, cells were treated with 500 units/ml of murine interferon-gamma for 24 hours, incubated with 10 uM DAF-FM for 30 minutes, and washed. Then the cells were then assessed for fluorescence in a platereader fluorimeter. The degree of NO formation is proportional to the degree of fluorescence of DfAF-FM. To determine NOS activity, we incubated 14-C-labeled-L-arginine was at 37° C. with 5 nM recombinant NOS1, NOS2 or NOS3 with HEPES buffer, dithiothreitol, tetrahydrobiopterin, FAD, and NADPH in the absence or presence of different concentrations of the compound in question for 60 minutes (27, 28). The reaction was stopped by adding excess L-citrulline, after which 14-C-labeled L-arginine was separated from 14-C-labeled citrulline using a Dowex-50 column (with the 14-C-labeled L-arginine being bound to the Dowex-50, and 14-C-labeled citrulline eluting free from the column). Radioactivity was determined with a scintillation counter, and percentage NOS inhibition was calculated. We determined that none of the compounds quenched detection of the radioactivity. Spectroscopy was determined using a Hitachi U2010 spectrometer (San Jose, Calif.) as noted before (17, 24, 25).
# NOS2 (iNOS) = molecular target: T2, NOS2 (iNOS) (Homo sapiens, UniProt P35228); test: NOS2 enzymatic activity: conversion of 14-C-L-arginine to L-citrulline; assay type: biochemical
# T2 construct: made in house
# Method: as §1, §2, §3
# [1] = stated as known; cited from earlier work
# [2] = UV/Vis spectroscopy of reaction of agent with NO; assay type: binding
# Method: NO reacts with OH-Cbl as indicated by the change in the UV/Vis spectrum (shift of peak from 352 nm to 354-355 nm, and alteration in the 520 nm region).
# as §3, with “25). […]” for “25).”
# Raw 264 cells = test: NO formation by activated Raw 264 mouse macrophage cells (DAF-FM fluorescence); assay type: cell-based; conditions: interferon-gamma, 24 hours, 0, 0.5, 2.0, or 8.0 uM
# Method: (§4) Cells of the mouse macrophage cell line J774 were incubated 3 days with 10 ng/ml endotoxin and 100 units/ml murine interferon gamma to activate the macrophage-like cells for NO production. The cultures also contained 0 to 62.5 uM dicyanocobinamide for the 3 days. At the end of the culture period, supernatant cell NO production was determined. […] Cells of the mouse macrophage cell line Raw 264 were incubated 24 hours with 100 units/ml murine interferon gamma to activate the macrophage-like cells for NO production. The cultures also contained 0, 0.5, 2.0, or 8.0 uM dicyanocobinamide for the entire culture period. At the end of the culture period the cells were assessed for NO production using DAF-MN and a fluorimeter. Results are expressed as percent inhibition. The error bars show the SEM.
# We prepared highly purified, recombinant NOS1 and NOS2 (24,25). […] NO levels were measured using a “Nitric Oxide Analyzer” (Sievers, Boulder, Colo.) or using diaminofluorescein-FM (4-amino-5-methylamino-2′,7′-difluorofluorescein) from Invitrogen-Molecular Probes.
# Briefly, cells were treated with 500 units/ml of murine interferon-gamma for 24 hours, incubated with 10 uM DAF-FM for 30 minutes, and washed. Then the cells were then assessed for fluorescence in a platereader fluorimeter. The degree of NO formation is proportional to the degree of fluorescence of DfAF-FM. […]
# J774 cells = test: NO formation by activated J774 mouse macrophage cells; assay type: cell-based; conditions: interferon-gamma and endotoxin, 3 days, 0 to 62.5 uM
# Method: as §4
# We prepared highly purified, recombinant NOS1 and NOS2 (24,25). Recombinant bovine NOS3 was purchased from Cayman (Ann Arbor, Mich.). Tetrahydrobiopterin and carboxy-PTIO {2-(4-Carboxyphenyl)-4,4,5,5-tetramethylimidazoline-1-oxyl-3-oxide (potassium salt)} were from Alexis (San Diego, Calif.). 14-C-labeled L-arginine and 14-C-labeled citrulline were from Amersham/GE Healthcare (Waukesha, Wis.). […] NO levels were measured using a “Nitric Oxide Analyzer” (Sievers, Boulder, Colo.) or using diaminofluorescein-FM (4-amino-5-methylamino-2′,7′-difluorofluorescein) from Invitrogen-Molecular Probes.
# [3] = molecular target: T3, purified, recombinant NOS2 (Homo sapiens, UniProt P35228); test: UV/Vis spectroscopy of CO binding to reduced NOS2 heme; conditions: reduced conditions (dithionite), CO as oxygen mimic
# T3 construct: made in house
# Source text: Oxygen reacts directly with the reduced iron of the heme group in NOS. Carbon monoxide (CO) (that simulates O2 in binding to the reduced iron) was used to determine the influence of CN2-Cbi on oxygen binding to NOS. The reaction of purified NOS2 with CO in a reduced state (dithionite) markedly changed the UV/Vis spectrum, with appearance of the typical CO-bound Fe^+2-heme peak at 445 nm (FIG. 4A). However, in the presence of CN2-Cbi, there was no appearance of the 445 nm peak induced by CO in a reduced state (FIG. 4B).
# Briefly, cells were treated with 500 units/ml of murine interferon-gamma for 24 hours, incubated with 10 uM DAF-FM for 30 minutes, and washed. Then the cells were then assessed for fluorescence in a platereader fluorimeter. The degree of NO formation is proportional to the degree of fluorescence of DfAF-FM. […] Radioactivity was determined with a scintillation counter, and percentage NOS inhibition was calculated. We determined that none of the compounds quenched detection of the radioactivity. Spectroscopy was determined using a Hitachi U2010 spectrometer (San Jose, Calif.) as noted before (17, 24, 25). […]
# [4] = after light illumination of the agent
# T3 sequence (P35228 whole entry): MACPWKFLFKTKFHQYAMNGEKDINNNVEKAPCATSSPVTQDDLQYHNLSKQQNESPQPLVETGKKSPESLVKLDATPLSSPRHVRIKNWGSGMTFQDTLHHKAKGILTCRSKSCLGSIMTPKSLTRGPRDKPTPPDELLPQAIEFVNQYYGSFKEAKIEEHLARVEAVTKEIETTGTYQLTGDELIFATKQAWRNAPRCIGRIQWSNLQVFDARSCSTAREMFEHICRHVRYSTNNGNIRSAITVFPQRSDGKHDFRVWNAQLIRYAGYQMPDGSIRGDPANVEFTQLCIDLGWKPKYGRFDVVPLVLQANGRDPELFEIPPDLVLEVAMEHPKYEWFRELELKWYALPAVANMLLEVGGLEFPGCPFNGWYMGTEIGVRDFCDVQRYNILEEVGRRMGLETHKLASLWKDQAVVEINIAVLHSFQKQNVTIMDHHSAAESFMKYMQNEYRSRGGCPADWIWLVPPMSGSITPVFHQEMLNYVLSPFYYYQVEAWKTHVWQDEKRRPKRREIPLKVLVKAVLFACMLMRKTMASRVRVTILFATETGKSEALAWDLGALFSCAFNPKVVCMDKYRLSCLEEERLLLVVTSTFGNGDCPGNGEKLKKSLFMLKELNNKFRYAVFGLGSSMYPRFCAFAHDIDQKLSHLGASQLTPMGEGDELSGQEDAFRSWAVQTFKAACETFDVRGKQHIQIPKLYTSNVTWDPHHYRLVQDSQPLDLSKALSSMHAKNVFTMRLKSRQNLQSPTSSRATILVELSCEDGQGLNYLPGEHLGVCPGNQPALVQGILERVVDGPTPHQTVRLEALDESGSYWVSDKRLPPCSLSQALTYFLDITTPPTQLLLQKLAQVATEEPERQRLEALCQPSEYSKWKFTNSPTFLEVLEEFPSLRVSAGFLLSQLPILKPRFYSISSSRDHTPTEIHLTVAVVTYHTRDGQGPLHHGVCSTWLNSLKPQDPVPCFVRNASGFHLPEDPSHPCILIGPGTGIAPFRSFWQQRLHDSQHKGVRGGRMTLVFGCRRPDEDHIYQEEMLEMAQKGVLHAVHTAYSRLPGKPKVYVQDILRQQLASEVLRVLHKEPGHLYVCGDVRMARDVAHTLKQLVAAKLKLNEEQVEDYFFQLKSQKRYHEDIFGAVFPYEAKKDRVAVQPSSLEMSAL
compound,measurement,setting,value
C/C1=C2/[N-][C@H]([C@H](CC(N)=O)[C@@]2(C)CCC(=O)NC[C@@H](C)OP(=O)([O-])O[C@H]2[C@@H](O)[C@@H](n3cnc4cc(C)c(C)cc43)O[C@@H]2CO)[C@]2(C)N=C(/C(C)=C3N=C(/C=C4N=C1[C@@H](CCC(N)=O)C\4(C)C)[C@@H](CCC(N)=O)[C@]\3(C)CC(N)=O)[C@@H](CCC(N)=O)[C@]2(C)CC(N)=O.[CH2-][C@H]1O[C@@H](n2cnc3c(N)ncnc32)[C@H](O)[C@@H]1O.[Co] [Adenosylcobalamin],NOS1 inhibition (in words),NOS1 (nNOS); [4],inhibitory activity (comparable to native OH-Cbl)
same,NOS1 inhibition (in words),NOS1 (nNOS); agent not exposed to light,very little ability to inhibit NOS activity
same,NOS2 inhibition (in words),NOS2 (iNOS); [4],inhibitory activity (comparable to native OH-Cbl)
same,NOS2 inhibition (in words),NOS2 (iNOS); agent not exposed to light,very little ability to inhibit NOS activity
"CC1(C)N([O])C(c2ccc(C(=O)O)cc2)=[N+]([O-])C1(C)C [Carboxy-PTIO, 2-(4-Carboxyphenyl)-4,4,5,5-tetramethylimidazoline-1-oxyl-3-oxide (potassium salt)]",NOS1 inhibition (in words),NOS1 (nNOS); purified recombinant NOS1,does not inhibit NOS
same,EC50,"NOS1 (nNOS); purified recombinant NOS1, 5 nM, 60 minutes, 37° C., read-out: ED50 NOS1",1360 µM
same,NOS2 inhibition (in words),NOS2 (iNOS); purified recombinant NOS2,does not inhibit NOS
same,EC50,"NOS2 (iNOS); purified recombinant NOS2, 5 nM, 60 minutes, 37° C., read-out: ED50 NOS2",1360 µM
C/C1=C2/[N-][C@H]([C@H](CC(N)=O)[C@@]2(C)CCC(=O)NC[C@@H](C)O)[C@]2(C)N=C(/C(C)=C3N=C(/C=C4N=C1[C@@H](CCC(N)=O)C\4(C)C)[C@@H](CCC(N)=O)[C@]\3(C)CC(N)=O)[C@@H](CCC(N)=O)[C@]2(C)CC(N)=O.[Co+3] [Cobinamide],NOS1 inhibition (in words),NOS1 (nNOS); purified recombinant NOS1,potent
same,NOS2 inhibition (in words),NOS2 (iNOS); purified recombinant NOS2,potent
same,ability to bind and scavenge NO,[1],able to bind and scavenge NO
C/C1=C2/[N-]C([C@H](CC(N)=O)[C@@]2(C)CCC(=O)NCC(C)O)[C@]2(C)N=C(/C(C)=C3N=C(/C=C4N=C1[C@@H](CCC(N)=O)C\4(C)C)[C@@H](CCC(N)=O)[C@]\3(C)CC(N)=O)[C@@H](CCC(N)=O)[C@]2(C)CC(N)=O.[C-]#N.[C-]#N.[Co] (stereo partly drawn) [Dicyanocobinamide],NOS1 inhibition (in words),NOS1 (nNOS); purified recombinant NOS1,potent
same,NOS2 inhibition (in words),NOS2 (iNOS); purified recombinant NOS2,potent
same,reaction with NO (change in UV/visible spectrum),[2],did not react
same,inhibition of NO production,Raw 264 cells,dose-dependent inhibition
same,inhibition of NO production,J774 cells,dose-dependent inhibition
same,CO-induced spectral changes in NOS2 (445 nm peak),[3],markedly diminished
C/C1=C2/[N-][C@H]([C@H](CC(N)=O)[C@@]2(C)CCC(=O)NC[C@@H](C)OP(=O)([O-])O[C@H]2[C@@H](O)[C@@H](n3cnc4cc(C)c(C)cc43)O[C@@H]2CO)[C@]2(C)N=C(/C(C)=C3N=C(/C=C4N=C1[C@@H](CCC(N)=O)C\4(C)C)[C@@H](CCC(N)=O)[C@]\3(C)CC(N)=O)[C@@H](CCC(N)=O)[C@]2(C)CC(N)=O.[Co+3].[OH-] [Hydroxocobalamin],NOS1 inhibition (in words),NOS1 (nNOS); purified recombinant NOS1,potent
same,NOS2 inhibition (in words),NOS2 (iNOS); purified recombinant NOS2,potent
same,reaction with NO (change in UV/visible spectrum),[2],reacted
same,ability to bind and scavenge NO,[1],able to bind and scavenge NO
C/C1=C2/[N-][C@H]([C@H](CC(N)=O)[C@@]2(C)CCC(=O)NC[C@H](C)OP(=O)([O-])O[C@H]2[C@@H](O)[C@@H](n3cnc4cc(C)c(C)cc43)O[C@@H]2CO)[C@]2(C)N=C(/C(C)=C3N=C(/C=C4N=C1[C@@H](CCC(N)=O)C\4(C)C)[C@@H](CCC(N)=O)[C@]\3(C)CC(N)=O)[C@@H](CCC(N)=O)[C@]2(C)CC(N)=O.[CH3-].[Co+3] [Methylcobalamin],NOS1 inhibition (in words),NOS1 (nNOS); [4],inhibitory activity (comparable to native OH-Cbl)
same,NOS1 inhibition (in words),NOS1 (nNOS); agent not exposed to light,very little ability to inhibit NOS activity
same,NOS2 inhibition (in words),NOS2 (iNOS); [4],inhibitory activity (comparable to native OH-Cbl)
same,NOS2 inhibition (in words),NOS2 (iNOS); agent not exposed to light,very little ability to inhibit NOS activity
Cyanocobalamin,NOS1 inhibition (in words),NOS1 (nNOS); purified recombinant NOS1,much less activity
same,NOS2 inhibition (in words),NOS2 (iNOS); purified recombinant NOS2,much less activity

# Reference: patent publication US7871996B2, “Methods of inhibiting nitric oxide synthase using corrin derivatives” (The United States of America as represented by the …, priority 2006, dated 2011)
